The target in this assay is T1, K103NNY181C mutant reverse transcriptase (Human immunodeficiency virus type 1 group M subtype B, UniProt P04585, K690N/Y768C).
T1 construct: mutations that occur in the reverse transcriptase segment of the pol gene
The experiment in a line: Reverse transcriptase enzymatic assay (PicoGreen), K103N/Y181C mutant RT. The class given is biochemical, HIV-1. To be noted: enzymatic assay of Example 24. The gist of the method:
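HIV-1 RT (2.5 nM final) pre-incubated 15 min at room temperature with inhibitor, then reacted 50 min at 37 °C with poly rC 45 nM, dG15 4.5 nM, dGTP 3.6 μM in Tris/HCl pH 7.8, 1% DMSO. Final inhibitor 10 μM to 0.508 nM; EDTA-quenched, PicoGreen fluorescence read at 485/520 nm.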

Setting [1] is: IC50 mut, K103N/Y181C mutant reverse transcriptase.
[2] abbreviates: IC50 mut (nM), mutant (K103N/Y181C) reverse transcriptase.
Where [3] appears, read: IC50 mut, mutant reverse transcriptase.

The molecule `CN(C)c1ccc(Cl)c(-n2nnnc2SCC(=O)Nc2ccc(C#CC(C)(C)C(=O)O)cc2Cl)c1` [Compound 4243] came in with an IC50 under setting [1] of 140 nM. This lies in the sub-micromolar range.
Same read-out and setting: next, `CC(C)(C#Cc1ccc(NC(=O)CSc2nnnn2-c2cc(C(F)(F)F)ccc2Cl)c(Cl)c1F)C(=O)O` [Compound 4101]: 57 nM.
Under setting [2], `CC(C)(C)c1ccc(-n2nnnc2SCC(=O)Nc2ccc(NC(=O)c3cccc(C(=O)O)c3)cc2Cl)c(Cl)c1` [Compound 7027] registered an IC50 of 134 nM.
Under setting [2], `CC(C)(C)c1ccc(-n2nnnc2SCC(=O)Nc2ccc(NC(=O)CCC(=O)O)cc2Cl)c(Cl)c1` [Compound 7028] returned a half-inhibitory concentration (IC50) of 123 nM.
The molecule `CC(C)(NC(=O)c1ccc(NC(=O)CSc2nnnn2-c2ccc(C3CC3)cc2Cl)c(Cl)c1)C(=O)O` [Compound 6033] came in with an IC50 under setting [3] of 298 nM.
Under setting [3], `O=C(COc1ccc(NC(=O)CSc2nnnn2-c2ccc(C3CC3)cc2Cl)c(Cl)c1)NCCc1ccc[n+]([O-])c1` [Compound 5039] registered an IC50 of 479 nM.
The molecule `CC(C)(C#Cc1ccc(NC(=O)CSc2nnnn2-c2ccc(C(C)(C)C)cc2Cl)c(Cl)c1)OCC(=O)Nc1cccc(C(=O)O)c1` [Compound 4025] showed a half-inhibitory concentration (IC50) under setting [1] of 44 nM. This counts as double-digit nanomolar.
The same measure, in the same setting: next, `CN(C)CC(=O)NC(C)(C)C#Cc1ccc(NC(=O)CSc2nnnn2-c2ccc(C3CC3)cc2Cl)c(Cl)c1F` [Compound 4155]: 9.15 nM; `CC(C)(C#Cc1ccc(NC(=O)CSc2nnnn2-c2ccc(C3CC3)cc2Cl)c(Cl)c1)OCCN1CCCC1=O` [Compound 4182]: 58.5 nM.
Same read-out and setting: next, `CC(C)(N)C#Cc1ccc(NC(=O)CSc2nnnn2-c2cc(C(F)(F)F)cc(C3CC3)c2Cl)c(Cl)c1F` [Compound 4237]: 91.5 nM; `CC(C)(O)C#Cc1ccc(NC(=O)CSc2nnnn2-c2ccc(C(C)(C)C)cc2Cl)c(Cl)c1` [Compound 4005]: 20 nM; `CC(C)(C#Cc1ccc(NC(=O)CSc2nnnn2-c2ccc(C3CC3)cc2Cl)c(Cl)c1F)OCCO` [Compound 4169]: 9.2 nM.
As for `CC(C)(C#Cc1ccc(NC(=O)CSc2nnc(C3CC3)n2-c2ccc(C3CC3)cc2Cl)c(Cl)c1)C(=O)O` [Compound 1019], the IC50 under setting [3] was found to be 525 nM.
Same read-out and setting: next, `Cc1ccc(-n2nnnc2SCC(=O)Nc2ccc(-c3csc(N)n3)cc2Cl)c(Cl)c1` [Compound 3015]: 185 nM.
As for `CC(C)(O)C#Cc1ccc(NC(=O)CSc2nnnn2-c2cc(C#N)ccc2Cl)c(Cl)c1` [Compound 4021], under setting [1], the IC50 was 361 nM.
In turn, `CC(C)(C#Cc1ccc(NC(=O)CSc2nnc(C(F)(F)F)n2-c2ccc(C3CC3)cc2Cl)c(Cl)c1)NC(=O)c1cc[n+]([O-])cc1` [Compound 1018] yielded an IC50 under setting [3] of 51 nM.
As for `CC(C)(C#Cc1ccc(NC(=O)CSc2nnnn2-c2cc(CC3CC3)ccc2Cl)c(Cl)c1)C(=O)O` [Compound 4213], the IC50 under setting [1] came out at 32.5 nM.
As for `CC(C)(C#Cc1ccc(NC(=O)CSc2nnnn2-c2cc(C(C)(C)C)cc(Br)c2Cl)c(Cl)c1)NC(=O)CN1CCNCC1` [Compound 4224], under setting [1], the midpoint of inhibition, the IC50, lay at 101 nM.
Molecule `Cc1ccc(-n2nnnc2SCC(=O)Nc2ccc(-c3coc(C)n3)cc2Cl)c(Cl)c1` [Compound 3017] returned an IC50 under setting [3] of 308 nM.
In turn, `CCCC#Cc1ccc(NC(=O)CSc2nnnn2-c2ccc(C(C)(C)C)cc2Cl)c(Cl)c1` [Compound 4009] gave an IC50 under setting [1] of 8.9 nM. This lies in the single-digit nanomolar range.
For `CCOC(=O)c1ccc(NC(=O)Nc2ccc(NC(=O)CSc3nnnn3-c3ccc(C(C)(C)C)cc3Cl)c(Cl)c2)cc1` [Compound 7006], half-maximal inhibition under setting [2] (IC50) was put at 74 nM.
For the molecule `CC(C)(C)c1ccc(-n2nnnc2SCC(=O)Nc2ccc(OCC(=O)N3CCC(C(=O)O)CC3)cc2Cl)c(Cl)c1` [Compound 5028], the IC50 under setting [3] was determined as 39 nM.
In turn, `CC(C)(C#Cc1ccc(NC(=O)CSc2nnnn2-c2cc(C(F)(F)F)ccc2Cl)c(Cl)c1)NC(=O)C1CC1` [Compound 4140] registered an IC50 under setting [1] of 51 nM.
The same measure, in the same setting: next, `CC(C)(C#Cc1ccc(NC(=O)CSc2nnnn2-c2ccc(CC3CC3)cc2Cl)c(Cl)c1)C(=O)O` [Compound 4240]: 175 nM; `CC(=O)NC(C)(C)C#Cc1ccc(NC(=O)CSc2nnnn2-c2cc(C(F)(F)F)ccc2Cl)c(Cl)c1` [Compound 4141]: 40 nM; `CC(C)(C)c1ccc(-n2nnnc2SCC(=O)Nc2ccc(C#CCO)cc2Cl)c(Cl)c1` [Compound 4006]: 11 nM.
`CC(C)(C)c1ccc(-n2nnnc2SCC(=O)Nc2ccc(OCC(=O)NCCC(=O)O)cc2Cl)c(Cl)c1` [Compound 5025]: the IC50 under setting [3] worked out at 124 nM.
Take `CC(C)c1ccc(-n2nnnc2SCC(=O)Nc2ccc(C#CC(C)(C)C(=O)O)cc2Cl)c(Cl)c1` [Compound 4121]: inhibition under setting [1] was half-maximal at 33.5 nM (IC50).
Same read-out and setting: next, `CC(C)(C#Cc1ccc(NC(=O)CSc2nnnn2-c2ccc(C3CC3)cc2Cl)c(Cl)c1)NC(=O)CN1CCNCC1` [Compound 4124]: 27 nM.
Molecule `CC(CC(=O)O)NC(=O)COc1ccc(NC(=O)CSc2nnnn2-c2ccc(C(C)(C)C)cc2Cl)c(Cl)c1` (stereo not drawn) [Compound 5014] showed an IC50 under setting [3] of 146 nM. This counts as sub-micromolar.
`CC(C)(C)c1ccc(-n2nnnc2SCC(=O)Nc2ccc(NC(=O)Cc3ccc[n+]([O-])c3)cc2Cl)c(Cl)c1` [Compound 7048] registered an IC50 under setting [2] of 97 nM.
`CC(C)(C)c1ccc(-n2nnnc2SCC(=O)Nc2ccc(C(=O)Nc3ccncc3)cc2Cl)c(Cl)c1` [Compound 6029]: the IC50 under setting [3] is 22 nM.
With `CC(C)(C)c1ccc(-n2nnnc2SCC(=O)Nc2ccc(NC(=O)c3ccc(O)cc3)cc2Cl)c(Cl)c1` [Compound 7011], the IC50 under setting [2] came out at 181 nM.
With `CC(C)(C#Cc1ccc(NC(=O)CSc2nnnn2-c2cc(C3CC3)ccc2Cl)c(Cl)c1)NC(=O)c1cc[n+]([O-])cc1` [Compound 4208], under setting [1], half-maximal inhibition (IC50) required 6.9 nM.
The molecule `CC(C)(C#Cc1ccc(NC(=O)CSc2nnnn2-c2ccc(C3CC3)cc2Cl)c(Cl)c1)C(=O)NCc1cc[n+]([O-])cc1` [Compound 4148] yielded an IC50 under setting [1] of 11 nM.
In the case of `CC(C)(C)c1ccc(-n2nnnc2SCC(=O)Nc2ccc(C(=O)N3CCOCC3)cc2Cl)c(Cl)c1` [Compound 6005], under setting [3], the IC50 came to 564 nM.
`C/C(=C\c1ccc(NC(=O)CSc2nnnn2-c2ccc(C3CC3)cc2Cl)c(Cl)c1)C(=O)O` [Compound 3041] gave an IC50 under setting [3] of 94 nM. This IC50 lies about 6-fold lower than the previous one.
Molecule `CC(C)(C#Cc1ccc(NC(=O)CSc2nnnn2-c2ccc(C(C)(C)C)cc2Cl)c(Cl)c1)OCC(=O)NCC(=O)O` [Compound 4052] gave an IC50 under setting [1] of 30 nM.
In turn, `CC(C)(C#Cc1ccc(NC(=O)CSc2nnnn2-c2ccc(C(C)(C)C)cc2Cl)c(Cl)c1)C(=O)O` [Compound 4011] registered an IC50 under setting [1] of 25 nM.
As for `CC(C)(C#Cc1ccc(NC(=O)CSc2nnnn2-c2cc(C3CC3)ccc2Cl)c(Cl)c1F)OCCN1CCNCC1` [Compound 4209], the IC50 under setting [1] worked out at 46 nM.
On the same count and under the same terms, next, `CC(C)(C#Cc1ccc(NC(=O)CSc2nnnn2-c2ccc(C(C)(C)C)cc2Cl)c(Cl)c1)OCC(=O)N1CCOCC1` [Compound 4039]: 40 nM; `CNCCOC(=O)COC(C)(C)C#Cc1ccc(NC(=O)CSc2nnnn2-c2ccc(C(C)(C)C)cc2Cl)c(Cl)c1` [Compound 4035]: 56 nM.
Consider `CC(C)(C#Cc1ccc(NC(=O)CSc2nnnn2-c2ccc(C3CC3)cc2Cl)c(Cl)c1)C(=O)NCC1CCCO1` (stereo not drawn) [Compound 4146], for which the IC50 under setting [1] amounted to 37.5 nM.
Consider `CC(C)(C)c1ccc(-n2nnnc2SCC(=O)Nc2ccc(C#Cc3ccccc3)cc2Cl)c(Cl)c1` [Compound 4002], for which, under setting [1], half-maximal inhibition (IC50) required 268 nM.
As for `CC(C)(C#Cc1ccc(NC(=O)CSc2nnnn2-c2ccc(C3CC3)cc2Cl)c(Cl)c1)NC(=O)N1CCNCC1` [Compound 4228], under setting [1], 30 nM corresponded to half-maximal inhibition (IC50). This IC50 lies about 8.9-fold lower than the previous one.

By IC50 is commonly meant the concentration that gives 50% inhibition. A high value points to lower potency.

For the origin of these results see patent US7517998B2, “Non nucleoside reverse transcriptase inhibitors” (priority 2004, dated 2009).
